ChEMBL document CHEMBL5360611, “Mycobacterium tuberculosis PptT Inhibitors Based on Heterocyclic Replacements of Amidinoureas” (ACS Med Chem Lett, 2023)
Converted amounts (≈) assume the structure as drawn.

Key:
[1] = molecular target: T1, 4'-phosphopantetheinyl transferase PptT (Mycobacterium tuberculosis, UniProt O33336); assay: Inhibition of Mycobacterium tuberculosis H37Rv PptT by BpsA-coupled assay
T1 sequence (O33336 whole entry): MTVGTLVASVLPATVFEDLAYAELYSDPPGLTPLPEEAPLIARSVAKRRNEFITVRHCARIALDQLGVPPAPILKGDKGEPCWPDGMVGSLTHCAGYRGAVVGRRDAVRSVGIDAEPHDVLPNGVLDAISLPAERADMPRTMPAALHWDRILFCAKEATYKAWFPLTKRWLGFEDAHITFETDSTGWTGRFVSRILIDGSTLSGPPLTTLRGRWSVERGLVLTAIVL

[2] = test system: Mycobacterium tuberculosis; assay: Antimycobacterial activity against Mycobacterium tuberculosis H37Rv assessed as bacterial growth inhibition; type: functional
[3] = molecular target: T1, 4'-phosphopantetheinyl transferase PptT; assay: Inhibition of Mycobacterium tuberculosis H37Rv PptT by fluorescence polarization assay
[4] = Permeability of compound in human Caco-2 cells; type: ADME, cell-based; details: read-out: permeability
[5] = molecular target: T1, 4'-phosphopantetheinyl transferase PptT; assay: Inhibition of Mycobacterium tuberculosis PptT by fluorescence polarization assay
[6] = Solubility of compound; type: physicochemical
[7] = molecular target: Voltage-dependent L-type calcium channel subunit alpha-1C (Homo sapiens, UniProt Q13936); assay: Inhibition of human Cav1.2 cardiac ion channel transfected in HEK cells by automatic patch clamp analysis; type: toxicity, cell-based
[8] = molecular target: Sodium channel protein type 5 subunit alpha (Homo sapiens, UniProt Q14524); assay: Inhibition of human Nav1.5 channel ion channel transfected in HEK cells by automatic patch clamp analysis; type: toxicity, cell-based
[9] = Cytotoxicity against human HepG2 cells; type: toxicity, cell-based; details: read-out: TC50 (the source's name)
[10] = Lipophilicity, logD of compound at pH 7.4; type: physicochemical; details: buffer
[11] = molecular target: T1, 4'-phosphopantetheinyl transferase PptT; assay: Inhibition of his-tagged Mycobacterium tuberculosis PptT expressed in Escherichia coli BL21 cells by BpsA-coupled assay
[12] = Cytotoxicity against human THP-1 cells; type: toxicity, cell-based; details: read-out: TC50 (the source's name)
[13] = molecular target: Voltage-gated inwardly rectifying potassium channel KCNH2 (Homo sapiens, UniProt Q12809); assay: Inhibition of hERG transfected in HEK cells by automatic patch clamp analysis; type: toxicity, cell-based
Voltage-gated inwardly rectifying potassium channel KCNH2, sequence (Q12809 whole entry): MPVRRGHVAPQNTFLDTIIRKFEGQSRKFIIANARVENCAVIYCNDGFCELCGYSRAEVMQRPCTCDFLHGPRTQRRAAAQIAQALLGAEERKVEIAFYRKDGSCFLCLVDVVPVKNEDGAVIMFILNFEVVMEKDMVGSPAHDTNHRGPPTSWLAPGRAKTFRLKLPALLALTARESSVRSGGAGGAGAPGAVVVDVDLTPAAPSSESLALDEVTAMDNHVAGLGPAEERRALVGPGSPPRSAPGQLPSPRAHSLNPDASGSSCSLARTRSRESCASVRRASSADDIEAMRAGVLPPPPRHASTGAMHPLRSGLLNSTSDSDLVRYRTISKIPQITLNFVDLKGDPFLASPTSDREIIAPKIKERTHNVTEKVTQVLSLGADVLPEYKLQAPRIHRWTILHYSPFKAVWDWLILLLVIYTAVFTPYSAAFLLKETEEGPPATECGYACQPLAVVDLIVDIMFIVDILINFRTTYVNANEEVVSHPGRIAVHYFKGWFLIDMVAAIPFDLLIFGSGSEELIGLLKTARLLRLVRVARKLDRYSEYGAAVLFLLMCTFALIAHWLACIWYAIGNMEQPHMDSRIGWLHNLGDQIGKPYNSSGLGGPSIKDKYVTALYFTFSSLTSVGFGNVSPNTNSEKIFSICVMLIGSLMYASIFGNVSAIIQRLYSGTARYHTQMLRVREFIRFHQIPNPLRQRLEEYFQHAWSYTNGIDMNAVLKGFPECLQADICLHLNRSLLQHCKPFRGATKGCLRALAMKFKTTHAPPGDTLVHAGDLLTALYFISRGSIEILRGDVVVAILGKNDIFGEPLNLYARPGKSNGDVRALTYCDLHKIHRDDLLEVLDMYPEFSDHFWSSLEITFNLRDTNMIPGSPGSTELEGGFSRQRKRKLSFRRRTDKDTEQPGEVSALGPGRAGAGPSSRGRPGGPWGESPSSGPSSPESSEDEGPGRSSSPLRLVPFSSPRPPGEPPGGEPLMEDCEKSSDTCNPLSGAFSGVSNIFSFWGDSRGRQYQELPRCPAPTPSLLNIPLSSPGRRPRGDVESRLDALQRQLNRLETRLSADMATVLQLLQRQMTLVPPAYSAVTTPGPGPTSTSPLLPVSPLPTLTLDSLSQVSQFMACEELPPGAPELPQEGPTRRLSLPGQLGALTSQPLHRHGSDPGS

Voltage-dependent L-type calcium channel subunit alpha-1C, sequence (Q13936 whole entry): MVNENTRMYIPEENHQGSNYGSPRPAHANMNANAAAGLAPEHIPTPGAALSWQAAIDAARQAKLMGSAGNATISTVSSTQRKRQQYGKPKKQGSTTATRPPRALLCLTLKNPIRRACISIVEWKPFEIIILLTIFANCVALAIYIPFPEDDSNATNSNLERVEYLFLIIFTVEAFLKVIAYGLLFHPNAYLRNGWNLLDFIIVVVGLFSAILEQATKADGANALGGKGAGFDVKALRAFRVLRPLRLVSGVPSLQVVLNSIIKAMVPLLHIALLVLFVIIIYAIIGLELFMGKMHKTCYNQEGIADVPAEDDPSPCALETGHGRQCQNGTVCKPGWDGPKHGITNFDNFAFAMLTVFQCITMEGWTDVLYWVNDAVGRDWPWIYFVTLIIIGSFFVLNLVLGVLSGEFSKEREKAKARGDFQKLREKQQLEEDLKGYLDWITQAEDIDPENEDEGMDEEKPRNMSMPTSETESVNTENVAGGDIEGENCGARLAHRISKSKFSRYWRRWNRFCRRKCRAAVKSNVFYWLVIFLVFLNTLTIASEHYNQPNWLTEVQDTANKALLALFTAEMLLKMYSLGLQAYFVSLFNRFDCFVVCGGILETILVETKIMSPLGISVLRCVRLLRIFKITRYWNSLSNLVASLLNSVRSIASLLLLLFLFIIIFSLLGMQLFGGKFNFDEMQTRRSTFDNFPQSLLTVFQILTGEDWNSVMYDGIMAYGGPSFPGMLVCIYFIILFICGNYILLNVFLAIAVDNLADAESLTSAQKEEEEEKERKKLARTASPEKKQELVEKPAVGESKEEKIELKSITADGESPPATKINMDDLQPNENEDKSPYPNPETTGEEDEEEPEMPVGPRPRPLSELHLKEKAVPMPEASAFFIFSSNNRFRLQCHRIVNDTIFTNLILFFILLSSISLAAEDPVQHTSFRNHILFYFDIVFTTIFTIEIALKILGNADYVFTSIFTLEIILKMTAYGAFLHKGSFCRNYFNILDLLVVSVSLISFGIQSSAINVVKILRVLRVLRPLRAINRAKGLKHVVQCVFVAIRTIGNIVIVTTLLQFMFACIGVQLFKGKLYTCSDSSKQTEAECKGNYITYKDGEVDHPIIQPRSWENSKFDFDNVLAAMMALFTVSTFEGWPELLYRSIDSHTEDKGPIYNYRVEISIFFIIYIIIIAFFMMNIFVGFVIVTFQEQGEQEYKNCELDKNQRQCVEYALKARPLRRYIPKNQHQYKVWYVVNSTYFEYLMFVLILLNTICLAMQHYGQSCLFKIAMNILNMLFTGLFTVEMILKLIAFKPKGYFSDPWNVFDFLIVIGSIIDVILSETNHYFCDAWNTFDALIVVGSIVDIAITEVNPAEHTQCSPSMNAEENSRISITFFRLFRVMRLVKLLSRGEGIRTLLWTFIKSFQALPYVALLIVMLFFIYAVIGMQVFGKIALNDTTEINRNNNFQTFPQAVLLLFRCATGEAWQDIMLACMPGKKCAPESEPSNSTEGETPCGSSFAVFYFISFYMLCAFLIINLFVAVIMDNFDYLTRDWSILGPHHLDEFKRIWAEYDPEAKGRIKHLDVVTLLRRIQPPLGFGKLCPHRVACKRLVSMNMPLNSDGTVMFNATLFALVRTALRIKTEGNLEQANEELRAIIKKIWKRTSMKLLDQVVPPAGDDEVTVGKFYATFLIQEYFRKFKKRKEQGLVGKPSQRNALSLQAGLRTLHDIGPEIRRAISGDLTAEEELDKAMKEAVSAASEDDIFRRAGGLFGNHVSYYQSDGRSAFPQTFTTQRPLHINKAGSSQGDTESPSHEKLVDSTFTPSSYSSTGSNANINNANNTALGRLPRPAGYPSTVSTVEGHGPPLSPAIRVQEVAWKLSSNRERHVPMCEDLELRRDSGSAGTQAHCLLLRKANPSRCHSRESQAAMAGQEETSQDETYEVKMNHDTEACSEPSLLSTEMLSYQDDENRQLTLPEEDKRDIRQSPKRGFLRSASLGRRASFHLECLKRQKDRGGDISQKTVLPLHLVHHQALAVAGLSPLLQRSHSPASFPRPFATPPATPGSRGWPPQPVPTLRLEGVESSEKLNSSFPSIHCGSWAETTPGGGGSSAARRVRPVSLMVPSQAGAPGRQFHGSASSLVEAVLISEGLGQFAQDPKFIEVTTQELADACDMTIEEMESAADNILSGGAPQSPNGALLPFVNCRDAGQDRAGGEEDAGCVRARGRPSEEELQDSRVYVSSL

Question: For `CCNc1nc(Nc2c(CC)cccc2CC)ccc1OC`, which IC50 [1] is on record?
Answer: 87 µM

Question: And the MIC90 [2]?
Answer: 62 µM (≈ 18.6 µg/mL)

Question: And the IC50 [3]?
Answer: > 100 µM

Question: For `CCc1cccc(CC)c1Nc1cccc(NCC(C)C)n1`, which IC50 [1] is on record?
Answer: > 100 µM

Question: And the MIC90 [2]?
Answer: 17 µM (≈ 5.06 µg/mL)

Question: And the IC50 [3]?
Answer: > 100 µM

Question: Which IC50 [1] does the source give for `CCc1cccc(CC)c1/N=C1\CN(CC)C(=N)N1` here?
Answer: 16 µM

Question: With `C=C(NCC)NC(=O)Nc1c(CC)cccc1CC` as the molecule, how does the Papp [4] read?
Answer: 4 ×10⁻⁶ cm/s

Question: And the IC50 [5]?
Answer: 0.23 µM

Question: And the solubility [6]?
Answer: > 1000 µg/mL

Question: And the IC50 [7]?
Answer: 8.4 µM

Question: What about the IC50 [8] of the same molecule?
Answer: 3.8 µM

Question: What about the CC50 [9] of the same molecule?
Answer: > 30 µM

Question: What about the MIC90 [2] of the same molecule?
Answer: 3.1 µM (≈ 0.81 µg/mL)

Question: And the logD [10]?
Answer: 1.09

Question: And the IC50 [11]?
Answer: 2.3 µM

Question: What about the CC50 [12] of the same molecule?
Answer: > 30 µM

Question: And the IC50 [13]?
Answer: > 30 µM

Question: What does the source list for `CCNc1cc(C)cc(Nc2c(CC)cccc2CC)n1`?
Answer: IC50 [1]: 6.4 µM; MIC90 [2]: 22 µM (≈ 6.24 µg/mL)

Question: Which results are given for `CCNc1ccc(C(F)(F)F)c(Nc2c(CC)cccc2CC)n1`?
Answer: IC50 [7]: 15 µM; IC50 [1]: 30 µM; IC50 [8]: 14 µM; MIC90 [2]: 43 µM (≈ 14.5 µg/mL); IC50 [3]: > 100 µM; IC50 [13]: > 30 µM

Question: With `CCc1cccc(CC)c1Nc1cccc(NC)n1` as the molecule, how does the IC50 [7] read?
Answer: < 3 µM

Question: And the IC50 [1]?
Answer: 20 µM

Question: And the IC50 [8]?
Answer: 3.8 µM

Question: What about the MIC90 [2] of the same molecule?
Answer: 42 µM (≈ 10.7 µg/mL)

Question: And the IC50 [13]?
Answer: 7.5 µM

Question: For `CCNc1cccc(Nc2c(CC(F)(F)F)cccc2CC(F)(F)F)n1`, which IC50 [1] is on record?
Answer: > 100 µM

Question: And the MIC90 [2]?
Answer: > 100 µM

Question: And the IC50 [3]?
Answer: 1.3 µM

Question: With `CCNc1cccc(Nc2c(C(C)C)cccc2C(C)C)n1` as the molecule, how does the MIC90 [2] read?
Answer: > 100 µM

Question: What about the IC50 [3] of the same molecule?
Answer: > 100 µM

Question: For `CCc1cccc(CC)c1Nc1cccc(NC(C)C)n1`, which IC50 [1] is on record?
Answer: > 100 µM

Question: And the MIC90 [2]?
Answer: 32 µM (≈ 9.07 µg/mL)

Question: And the IC50 [3]?
Answer: > 100 µM

Question: Which results are given for `CCNC1=N/C(=N/c2c(Cl)cccc2Cl)CN1`?
Answer: IC50 [7]: > 30 µM; IC50 [8]: > 30 µM; IC50 [13]: > 30 µM

Question: Which IC50 [1] does the source give for `CCNc1ccc(C)c(Nc2c(CC)cccc2CC)n1` here?
Answer: 1.8 µM

Question: And the MIC90 [2]?
Answer: 55 µM (≈ 15.6 µg/mL)

Question: Which IC50 [1] does the source give for `CCNc1ccc(Cl)c(Nc2c(CC)cccc2CC)n1` here?
Answer: > 100 µM

Question: What about the MIC90 [2] of the same molecule?
Answer: > 100 µM

Question: Which MIC90 [2] does the source give for `CCNc1cccc(Nc2c(CC)cc(C(=O)NC)cc2CC)n1` here?
Answer: 69 µM (≈ 22.5 µg/mL)

Question: What about the IC50 [3] of the same molecule?
Answer: 3.3 µM

Question: For `CCc1cccc(CC)c1/N=C1\CNC(=N)N1CC`, which IC50 [1] is on record?
Answer: 84 µM

Question: What does the source list for `CCNc1cccc(Nc2c(CC)cc(S(=O)(=O)NCC)cc2CC)n1`?
Answer: MIC90 [2]: > 100 µM; IC50 [3]: 1 µM

Question: With `CCc1cccc(CC)c1Nc1cccc(NC(C)=O)n1` as the molecule, how does the IC50 [1] read?
Answer: > 100 µM

Question: And the MIC90 [2]?
Answer: 62 µM (≈ 17.6 µg/mL)

Question: And the IC50 [3]?
Answer: > 100 µM

Question: Which IC50 [1] does the source give for `CCNc1ccc(F)c(Nc2c(CC)cccc2CC)n1` here?
Answer: 12 µM

Question: And the MIC90 [2]?
Answer: > 100 µM

Question: Which results are given for `CCNc1nc(Nc2c(CC)cccc2CC)ccc1F`?
Answer: IC50 [1]: 7.2 µM; MIC90 [2]: > 100 µM

Question: Which IC50 [7] does the source give for `CCNc1cccc(Nc2c(CC)cccc2CC)n1` here?
Answer: 8.1 µM

Question: And the IC50 [1]?
Answer: 3.3 µM

Question: What about the IC50 [8] of the same molecule?
Answer: 6.9 µM

Question: And the MIC90 [2]?
Answer: 42 µM (≈ 11.3 µg/mL)

Question: And the IC50 [3]?
Answer: 0.71 µM

Question: What about the IC50 [13] of the same molecule?
Answer: 11 µM

Question: What does the source list for `CCNc1nc(Nc2c(CC)cccc2CC)ccc1C`?
Answer: IC50 [1]: 23 µM; MIC90 [2]: 54 µM (≈ 15.3 µg/mL)

Question: With `CCNc1cccc(Nc2c(C3CC3)cccc2C2CC2)n1` as the molecule, how does the IC50 [1] read?
Answer: 8.4 µM

Question: What about the MIC90 [2] of the same molecule?
Answer: 22 µM (≈ 6.46 µg/mL)

Question: With `CCNc1cc(OC)cc(Nc2c(CC)cccc2CC)n1` as the molecule, how does the IC50 [7] read?
Answer: 3.4 µM

Question: What about the IC50 [1] of the same molecule?
Answer: 0.72 µM

Question: What about the IC50 [8] of the same molecule?
Answer: 3.7 µM

Question: And the MIC90 [2]?
Answer: 16 µM (≈ 4.79 µg/mL)

Question: What about the IC50 [3] of the same molecule?
Answer: 5 µM

Question: What about the IC50 [13] of the same molecule?
Answer: 5.7 µM
